Laboratory results taken from PubChem BioAssay AID788 (SRMLSC, 2007).
The source made the active and inactive calls. The rule behind the calls is not given here.

Experiments:
[1] = tested on: S. cerevisiae vps1Δ apl2Δ growth inhibition, dose response; test: vps1Δ apl2Δ double mutant yeast growth inhibitors – S. cerevisiae, background strain comparison, post-Golgi transport modulator project, dose response (AID 788)
[2] = tested on: S. cerevisiae wild-type background strain growth inhibition; test: as above; details: S. cerevisiae vps1Δ apl2Δ growth inhibition, dose response; measured here: wild-type background strain growth

Row | Structure (SMILES) | IC50 [1] | IC50 [2] [µM]
1 | O=C(NCC(=O)N(c1cccnc1)C(C(=O)NCc1ccco1)c1ccccc1)c1ccco1 (centres undefined) | > 10 µM (inactive) | > 10
2 | Cc1ccc(OCC(O)CN2CCN(Cc3ccc4c(c3)OCO4)CC2)c(C)c1 (centres undefined) | 2.35 µM | > 10
3 | CCC(C)c1ccc(OCCCCN2CCOCC2)cc1 (centres undefined) | 4.71 µM | > 10
4 | O=C(Nc1cc(C(F)(F)F)ccc1-n1cncn1)c1ccc(-c2ccccc2)cc1 | > 10 µM (inactive) | > 10
5 | Cc1cccc(-n2c(N)c(C(=O)NCCN3CCOCC3)c3nc4ccccc4nc32)c1 | > 10 µM (inactive) | > 10
6 | Clc1ccc2[nH]c3c(NCC4CCCO4)ncnc3c2c1 (centres undefined) | > 10 µM (inactive) | > 10
7 | O=C(O)c1cc(-c2ccc(/C=N/Nc3ccc(Cl)cc3)o2)ccc1Cl | 10.9 µM | 16.4
8 | CCc1cc(=O)oc2cc(C)c(CN3CCCC(C)C3)c(O)c12 (centres undefined) | > 10 µM (inactive) | > 10
9 | O=C(Nc1nnc(-c2ccc3c(c2)CCCC3)o1)c1ccccc1Cl | 14.6 µM (inactive) | 10.7
10 | C=C(C)C1CC=C(CN2CCC(C(=O)OCC)CC2)CC1 (centres undefined) | 13.5 µM | > 10
11 | Cc1cc(N2C(=O)C3CCCN3C2c2sccc2C)no1 (centres undefined) | > 10 µM (inactive) | > 10
12 | Cc1ccc(SC(=O)COc2ccc(C)c(C)c2)cc1 | > 10 µM (inactive) | > 10
13 | Cc1ccc(C2N(c3ccc(Cl)c(Cl)c3)C(=O)C3CCCN32)o1 (centres undefined) | > 10 µM (inactive) | > 10
14 | C=C(C)C1CC=C(CN2CC(C)OC(C)C2)CC1 (centres undefined) | 4.44 µM | > 10
15 | COc1ccc(-c2nnc(CSc3nc4ccccc4c(=O)n3C)o2)cc1OC | > 10 µM (inactive) | > 10
16 | CC(C)(C)n1nnnc1CN(Cc1cccnc1)Cc1ccccc1Cl | > 10 µM (inactive) | > 10
17 | O=C1NC2(Nc3ccccc31)C(=O)Nc1ccccc12 (centres undefined) | > 10 µM (inactive) | > 10
18 | COc1ccc(C2=NC(C(F)(F)F)(C(F)(F)F)c3c(n(C)c(=O)n(C)c3=O)N2)cc1 | > 10 µM (inactive) | > 10
19 | O=C(C1COc2ccccc2O1)N1CCN(Cc2ccc3c(c2)OCO3)CC1 (centres undefined) | 10.4 µM | > 10
20 | Cc1ccc(C)c(NS(=O)(=O)c2cc(C(=O)N3CCc4ccccc4C3)ccc2Cl)c1 | 8.09 µM (inactive) | 6.88
21 | Cc1cc(C(C)(C)C)ccc1OCCN1CCCC1 | 17.1 µM | > 10

Row | Structure (SMILES) | IC50 [1] | IC50 [2] [µM]
22 | Cn1c(=O)c2nc(NCc3ccccc3)cnc2n(C)c1=O | > 10 µM (inactive) | > 10
23 | Cc1sc(NC(=O)c2ccco2)c(C(c2cccnc2)N2CCC(C)CC2)c1C (centres undefined) | 9.99 µM (inactive) | 5.77
24 | N#CC1=C(N)NC(SCc2ccc(F)cc2)=C(C#N)C12CCCCC2 | 4.84 µM | 16.3
25 | COc1ccc(N2CCN(C(=O)CCNS(=O)(=O)c3ccc(Br)s3)CC2)cc1 | > 10 µM (inactive) | > 10
26 | O=C(COc1ccc(Br)cc1F)NC1CCN(Cc2ccccc2)CC1 | 3.05 µM | > 10
27 | O=C(N/N=C/c1ccc(OC(=O)c2ccccc2)cc1)c1ccc(CN2CCOCC2)cc1 | > 10 µM (inactive) | > 10
28 | COc1ccc(/C=C2\SC(=S)N(NC(=O)c3csc4c3CCCC4)C2=O)cc1 | > 10 µM (inactive) | > 10
29 | Cc1cc(C)nc(NC(=O)CSc2nn(C)c(=S)s2)n1 | > 10 µM (inactive) | > 10
30 | N[C@@H](Cc1c[nH]c2ccccc12)c1nnc(SCc2ccc(Cl)cc2)o1 | 24.8 µM (inactive) | 20.4
31 | ON=Cc1cccn1-c1ccccc1 | > 10 µM (inactive) | > 10
32 | COc1cc2[nH]c(=S)n(CCCN3CCOCC3)c(=O)c2cc1OC | > 10 µM (inactive) | > 10
33 | Cc1nn(-c2ccccn2)c(C)c1Oc1ccccc1O | > 10 µM (inactive) | > 10
34 | Cc1ccc(C(=O)c2c(NC(=O)c3ccncc3)sc3c2CCCC3)cc1 | 16.9 µM | > 10
35 | Cc1cc(=O)oc2c(CN3CCCCC3)c(O)c(Cl)cc12 | > 10 µM (inactive) | > 10
36 | CCCCOc1ccc(-c2ncc(C(=O)O)c(C)n2)cc1 | > 10 µM (inactive) | > 10
37 | CCCOc1ccccc1N/C(=N/c1nc(C)cc(C)n1)NC(=O)COc1ccc(OC)cc1 | > 10 µM (inactive) | > 10
38 | COc1cccc(OCCCCN2CC(C)OC(C)C2)c1 (centres undefined) | 4.38 µM | > 10
39 | Clc1cc(Br)ccc1OCCOCCN1CCOCC1 | 20.3 µM | > 10
40 | O=C(OCn1ncc(Br)c(Br)c1=O)c1ccc(F)cc1 | 5.12 µM | 5.38
41 | CCCc1cc(NCCCCO)n2c(nc3ccccc32)c1C#N | > 10 µM (inactive) | > 10
42 | Cc1ccc(NS(=O)(=O)c2cc(C(=O)N3CCOCC3)ccc2C)cc1 | > 10 µM (inactive) | > 10

Row | Structure (SMILES) | IC50 [1] | IC50 [2] [µM]
43 | CC(C)OC(=O)CSc1nnc(-c2ccc(Cl)cc2)n1N | > 10 µM (inactive) | > 10
44 | Cc1cc(O)c(/C=N/Nc2ccc(Cl)cc2)c(=O)o1 | 3.33 µM | 4.69
45 | Cc1nc(NC(=O)c2ccccc2)sc1-c1csc(NCc2ccccc2)n1 | 3.54 µM | > 10
46 | Cc1c(Cc2ccccc2)c(=O)oc2c(C)c(OCc3nn[nH]n3)ccc12 | > 10 µM (inactive) | > 10
47 | O=S(=O)(c1ccc(Cl)cc1)N1CCN(C2CCN(Cc3ccccc3)CC2)CC1 | 5.15 µM | > 10
48 | N=c1nc(N)nc2n1NC(c1ccc(F)cc1)=CS2 | > 10 µM (inactive) | > 10
49 | COc1ccc2c(c1)C(C)=CC(C)(C)N2C(=O)CSc1nnc(-c2ccc(C)cc2)o1 | > 10 µM (inactive) | > 10
50 | O=C(COc1ccc(Cl)cc1)Nc1ccc(N2CCN(C(=O)c3ccco3)CC2)cc1 | > 10 µM (inactive) | > 10
51 | O=C(c1ccco1)N1CCN(c2ncnc3c2[nH]c2ccccc23)CC1 | > 10 µM (inactive) | > 10
52 | CN1C(=O)/C(=C/c2cccn2-c2ccc3ccccc3c2)C(=O)NC1=S | 10.4 µM (inactive) | 6.58
53 | CCCCCOc1ccc(CN2CCOCC2)cc1Cl | 3.92 µM | > 10
54 | CCN(CC)c1nc2cc(OC)ccc2cc1C#N | > 10 µM (inactive) | > 10
55 | CCOC(=O)C1=C(CSc2nc(-c3ccccc3)ccc2C#N)OC(N)=C(C#N)C1c1cccnc1 (centres undefined) | > 10 µM (inactive) | > 10
56 | COc1ccc(NC(=S)NC(NC(=O)c2ccc(Cl)cc2Cl)C(Cl)(Cl)Cl)c([N+](=O)[O-])c1 (centres undefined) | > 10 µM (inactive) | > 10
57 | CCC(C)(C)n1nnnc1C(c1cc2cc3c(cc2[nH]c1=O)OCO3)N1CCN(C)CC1 (centres undefined) | > 10 µM (inactive) | > 10
58 | COc1cc(CN2CCN(c3ccc(C)cc3)CC2)cc([N+](=O)[O-])c1O | > 10 µM (inactive) | > 10
59 | O=C1c2ccccc2C(=O)c2c1oc(C(F)(F)F)c2C(=O)c1ccccc1 | 2.92 µM (inactive) | 2.2
60 | O=C(Nc1nnc(-c2ccc3c(c2)CCCC3)o1)c1ccc(Cl)cc1Cl | 6.32 µM (inactive) | 3.46
61 | CCCCCOc1ccc(Cl)cc1CN1CCOCC1 | 20.6 µM | > 10
62 | CCOC(=O)C1CCN(Cc2cnc(Oc3ccc(Cl)cc3C)s2)CC1 | 26 µM | > 10
63 | Cc1ccn2cc(-c3nonc3C)cc2c1 | > 10 µM (inactive) | > 10

Row | Structure (SMILES) | IC50 [1] | IC50 [2] [µM]
64 | O=C(COc1ccc(Cl)cc1Cl)N1CCN(C/C=C/c2ccccc2)CC1 | 1.46 µM | 7.14
65 | O=C1CN(C(=O)CSc2nnc(-c3ccccc3)n2Cc2ccc3c(c2)OCO3)c2ccccc2N1 | > 10 µM (inactive) | > 10
66 | Cc1ccc(C(C)C)c(OCCCN2CC(C)OC(C)C2)c1 (centres undefined) | 9.78 µM | > 10
67 | CCC(OC(=O)C(NC(=O)c1ccccc1)c1ccccc1)C(=O)Nc1cc(C)on1 (centres undefined) | > 10 µM (inactive) | > 10
68 | Nc1c(C(=O)OCC2CCCO2)c2nc3ccccc3nc2n1-c1ccc2c(c1)OCCO2 (centres undefined) | > 10 µM (inactive) | > 10
69 | Cc1cccc(N2CCN(CC(=O)Nc3nccs3)CC2)c1C | > 10 µM (inactive) | > 10
70 | O=C(c1ccc(Cl)cc1Cl)N1CCC(c2nc3c(nnn3Cc3ccco3)c(=O)[nH]2)CC1 | > 10 µM (inactive) | > 10
71 | COc1ccc(-c2cc(N)n(S(=O)(=O)c3c(F)c(F)c(F)c(F)c3F)n2)cc1OC | 2.5 µM (inactive) | 1.08
72 | Cc1nn(Cc2cccc(C(=O)NC(C)c3ccc(C(C)(C)C)cc3)c2)c(C)c1[N+](=O)[O-] (centres undefined) | > 10 µM (inactive) | > 10
73 | OC(Cn1ccnc1)c1ccc(Cl)cc1Cl (centres undefined) | > 10 µM (inactive) | > 10
74 | CC(C)c1ccc(C2C3CSCC=C3C(C#N)=C(N)C2(C#N)C#N)cc1 (centres undefined) | 2.08 µM (inactive) | 0.843
75 | CCc1cc2c(=O)c(Oc3ccccc3F)c(C)oc2c(CN(C)C)c1O | > 10 µM (inactive) | > 10
76 | CC(=O)c1cnc2nc(C)nn2c1C | > 10 µM (inactive) | > 10
77 | CSc1ncccc1C(=O)OCC(=O)N1CCOCC1 | > 10 µM (inactive) | > 10
78 | CC(C)Oc1ccc(/C(O)=C2/C(=O)C(=O)N(CCN(C)C)C2c2ccco2)cc1 (centres undefined) | > 10 µM (inactive) | > 10
79 | O=C(NCc1ccc2c(c1)OCO2)c1ccc(-n2cnnn2)cc1 | > 10 µM (inactive) | > 10
80 | COc1ccc(CN(C(=O)Cc2cccs2)C(C(=O)NC2CCCC2)c2ccncc2)cc1 (centres undefined) | > 10 µM (inactive) | > 10
81 | O=C(NCc1ccco1)C(c1cccs1)N(C(=O)Cc1cccs1)c1ccccc1 (centres undefined) | > 10 µM (inactive) | > 10
82 | O=C(COc1ccc(Cl)cc1Cl)NCCCN1CCOCC1 | 20.8 µM | > 10
